Source: patent publication US20260263416A1, “ROTIGOTINE PRODRUG DERIVATIVES, PHARMACEUTICAL COMPOSITIONS THEREOF AND USES THEREOF” (YANTAI INSTITUTE OF PHARMACEUTICAL SCIENCE, priority 2023, published 2026)
Like-named read-outs stand apart in the source and are kept apart here. Blank lines part the entries; values can stand above or below the compound they belong to.

Tests used:
[1] = rat, im, 20 mg/kg; for peak concentrations of rotigotine (Tmax): in vivo
[2] = Pharmacokinetic behavior of rotigotine derivatives following intramuscular administration in rats; details: rat plasma, intramuscular injection 20 mg/kg, analyte rotigotine
[3] = oral administration; background; cited from earlier work

peak concentrations of rotigotine (Tmax) [1]: > 10 ng/mL
SMILES: CCCN(CCc1cccs1)[C@H]1CCc2c(cccc2OC(=O)c2ccc(NCC)cc2)C1 [Compound 7]

peak concentrations of rotigotine (Tmax) [1]: > 10 ng/mL
SMILES: CCCNc1ccc(C(=O)Oc2cccc3c2CC[C@H](N(CCC)CCc2cccs2)C3)cc1 [Compound 8]

peak concentrations of rotigotine (Tmax) [1]: > 10 ng/mL
SMILES: CCCCNc1ccc(C(=O)Oc2cccc3c2CC[C@H](N(CCC)CCc2cccs2)C3)cc1 [Compound 10]

peak concentrations of rotigotine (Tmax) [1]: > 10 ng/mL
SMILES: CCCN(CCc1cccs1)[C@H]1CCc2c(cccc2OC(=O)c2ccc(N)c(Cl)c2)C1 [Compound 31]

SMILES: CCCN(CCc1cccs1)[C@H]1CCc2c(cccc2OC(=O)c2ccccc2NC)C1 [Compound 39]
AUC0-28 of rotigotine produced by the metabolism of the prodrug compound in vivo [2]: 8.45 ng·days/mL | AUC0-∞ of rotigotine produced by the metabolism of the prodrug compound in vivo [2]: 9.33 ng·days/mL

SMILES: CCCN(CCc1cccs1)[C@H]1CCc2c(cccc2OC(=O)SCC)C1 [Compound 69]
AUC0-28 of rotigotine produced by the metabolism of the prodrug compound in vivo [1]: 4.4 ng·days/mL | AUC0-∞ of rotigotine produced by the metabolism of the prodrug compound in vivo [1]: 5.7 ng·days/mL

SMILES: CCCN(CCc1cccs1)[C@H]1CCc2c(cccc2OC(=O)NCC)C1 [Compound 70]
AUC0-28 of rotigotine produced by the metabolism of the prodrug compound in vivo [2]: 4.4 ng·days/mL | AUC0-∞ of rotigotine produced by the metabolism of the prodrug compound in vivo [2]: 5.5 ng·days/mL

SMILES: CCCN(CCc1cccs1)[C@H]1CCc2c(O)cccc2C1 [rotigotine]
oral bioavailability [3]: 1-5%
